# In paper PMC6102549, “Synthesis and Evaluation of C15 Triene Urushiol Derivatives as Potential Anticancer Agents and HDAC2 Inhibitor” (Molecules : A Journal of Synthetic Chemistry and Natural …, 2018):
# Legend:
# Format in all cases: cell-based, human
# HepG2 cells [1] = assay: MTT assay, inhibition of proliferation of HepG2 cells; conditions: for IC50: in vitro, 72 h
# Description: As shown in Figure 1 and Table 1, compounds 1–16 were evaluated for their inhibitory effects on the proliferation of HepG2 and LO2 cells by MTT assay. […] It provided the experimental basis for the subsequent synthesis of attenuating and improving urushiol derivatives.
# (§1) Detection of cell proliferation by MTT
# (§2) MTT assay was used to determine the inhibitory effect of the sample on the proliferation of HepG2 cells. The tumor cells of logarithmic growth stage were inoculated with 3.5 * 103 / well in 96 well culture plate. 0.2 ml/pore system was cultured for 72 h with different concentrations of samples. Then 20μL(final concentration 0.5 mg / mL) of MTT were added to each pore for 4 h. The supernatant was carefully adsorbed, DMSO 0.15 mL was added to each pore, and oscillatory mixing was carried out. The absorbance (A) value at 490 nm wavelength was measured by enzyme labeling instrument. The inhibition rate of cell proliferation was calculated as follows: [(A value of negative control group-A value of blank group)-(A value of experimental group A value of blank group)] / (negative pair group A-A value of blank group) × 100.Statistical method. The statistical analysis was carried out by SPSS 17.0 statistical software. The measured data were described by x ±s, and the mean of the two samples was compared with t test (P < 0. 05).
# (§3) Materials and methods: Main reagents and instruments […]
# Full-range rainbow […]
# The HepG2 cells were cultured in a saturated humidity incubator with 90% […]
# Jiangsu Kaiji Biotechnology Co., Ltd. Main reagents and consumables Cell culture bottle […]
# Cell proliferation measured by MTT
# 1) the cells were digested and counted, the cell suspension was prepared by 3 x 10^4 /ml, and 100 micron L cell suspension was added to each hole in the 96 hole cell culture plate.
# 2) 96 hole cell culture plate was placed in 37, 5%, CO2 culture box for 24 hours.
# 3) use the medium to dilute the drug to the desired working fluid concentration, add 100 micron l per hole to the corresponding drug medium, and establish a negative control group and a positive control group (paclitaxel, 20ug/ml).
# 4) 96 hole cell culture plate was placed at 37 ℃ and 5% CO2 incubator for 72 hours.
# 5) 96 hole board for MTT staining, lambda =490nm, OD value determination; a. 20 μL MTT (5mg/ml) per hole was added to the culture box for 4 hours. b. discarding the supernatant, adding 150 μL DMSO for each hole, and gently mixing the […]
# c. lambda =490nm, ELISA od readout per hole, the inhibition rate was calculated.
# 6) calculate the inhibition rate of each group.The inhibition rate (%) = (negative control group OD value of experimental group / OD) negative control group OD x 100% […]
# 7 check the machine and record the red fluorescence at the excitation wavelength of 488nm.
# Detection of apoptosis by Annexin-V FITC/PI double staining
# (1) inoculate the logarithmic growth cells into the six-hole plate. The next day, after the cells are adhered to the wall, according to the group . The culture medium containing medicine was added and the negative control group was set up at the same time
# (2) after 72 hours of treatment, the cells were digested with 0.25% trypsin (excluding […]
# (3) 5 × 10 ~ 5 cells were collected by PBS washing cells twice (centrifugation 2000rpm for 5
# HepG2 cells [2] = assay: PI single staining assay for cell cycle (flow cytometry); conditions: for G1 (%) / G2 (%) / S (%): 72 h
# Description: After the cells were tested with three different doses of Compound 1 (1, 3, and 12 μM), they were collected and detected by flow cytometry. […] Compared with the blank control group, the proportion of cells in G0/G1 phase of each dose of compound 1 increased gradually, but both the percentage of S stage cells and the proportion of cells in G2/M stage decreased to some extent. […]
# Detection of cell cycle by PI single staining
# 1, the logarithmic growth phase were digested and inoculated into six well plates, the next day, after the cells adhered, according to the group set to join the corresponding drug containing medium, and the establishment of the negative control group; 2, after the action of 72h, the cells were digested with 0.25% pancreatin (not containing […]
# 3, 5 x 10^5 cells were collected by PBS scrubbing cells (centrifuge 2000rpm, 5min).
# 4, the single cell suspension prepared was fixed for 2 hours (or overnight) with a volume fraction of 70% ethanol, and stored at 4 ℃. Before washing, PBS was used to remove the fixative solution (if needed, cell suspension was filtered through 200 mesh mesh).
# 5 plus 100 mu L RNase A 37 ℃ water bath 30min;
# 6, adding 400 L PI dyeing and avoiding light 30min at 4 ℃.
# 7 check the machine and record the red fluorescence at the excitation wavelength of 488nm. […]
# HDAC2 = assay: Western blot of HDAC2 expression in HepG2 cells; conditions: versus hepatoma cell group, p < 0.05
# Excerpt: The total protein was extracted from the logarithmic growth phase of hepatoma HepG2 cell line, and the expression of HDAC2 was detected by Western blot method with urushiol derivative compound 1(see Figure 3). […] The mechanism was probably related to the inhibition of HDAC2 expression.
# as §1, §2, §3
structure (smiles),measurement,setting,value
C/C=C\C=C\C/C=C\CCCCCCCc1cccc(O)c1O[Si](CCCS)(OC)OC [Compound 1],inhibitory activity on HepG2 cells proliferation (in words),HepG2 cells [1],strong
same,IC50,"HepG2 cells [1]; Homo sapiens, HepG2, 72 h",7.89 µM
same,IC50,HepG2 cells [1],7.88 µM
same,G1 (%),"HepG2 cells [2]; HepG2, 1 μM",54.48%
same,G2 (%),"HepG2 cells [2]; HepG2, 1 μM",15.79%
same,S (%),"HepG2 cells [2]; HepG2, 1 μM",29.72%
same,G1 (%),"HepG2 cells [2]; HepG2, 3 μM",60.17%
same,G2 (%),"HepG2 cells [2]; HepG2, 3 μM",13.64%
same,S (%),"HepG2 cells [2]; HepG2, 3 μM",26.19%
same,G1 (%),"HepG2 cells [2]; HepG2, 12 μM",65.80%
same,G2 (%),"HepG2 cells [2]; HepG2, 12 μM",13.79%
same,S (%),"HepG2 cells [2]; HepG2, 12 μM",20.40%
same,effect on cell cycle (in words),"HepG2 cells [2]; HepG2, 1, 3 and 12 μM",block cells in G0/G1 phase
same,expression of HDAC2 protein (in words),HDAC2,significantly lower
